Literature values, collected in US20240156825A1, “USE OF SELECTIVE VEGFR2 AND FGFR1 INHIBITORS” (Fountain Therapeutics Inc., priority 2022, published 2024).
Read-outs that look alike come from different tables or passages of the source.

Key:
VEGFR2 = VEGFR2 (Homo sapiens, UniProt P35968); settings: reported IC50 to VEGFR2, read-out: VEGFR2 IC50_μM, cited from earlier work
any gene target = settings: next lowest IC50 value to any gene target, read-out: Min IC50_μM, cited from earlier work
[1] = Table 3, selective inhibitors of VEGFR2

Sequence of VEGFR2 (P35968 20-1356, species assumed): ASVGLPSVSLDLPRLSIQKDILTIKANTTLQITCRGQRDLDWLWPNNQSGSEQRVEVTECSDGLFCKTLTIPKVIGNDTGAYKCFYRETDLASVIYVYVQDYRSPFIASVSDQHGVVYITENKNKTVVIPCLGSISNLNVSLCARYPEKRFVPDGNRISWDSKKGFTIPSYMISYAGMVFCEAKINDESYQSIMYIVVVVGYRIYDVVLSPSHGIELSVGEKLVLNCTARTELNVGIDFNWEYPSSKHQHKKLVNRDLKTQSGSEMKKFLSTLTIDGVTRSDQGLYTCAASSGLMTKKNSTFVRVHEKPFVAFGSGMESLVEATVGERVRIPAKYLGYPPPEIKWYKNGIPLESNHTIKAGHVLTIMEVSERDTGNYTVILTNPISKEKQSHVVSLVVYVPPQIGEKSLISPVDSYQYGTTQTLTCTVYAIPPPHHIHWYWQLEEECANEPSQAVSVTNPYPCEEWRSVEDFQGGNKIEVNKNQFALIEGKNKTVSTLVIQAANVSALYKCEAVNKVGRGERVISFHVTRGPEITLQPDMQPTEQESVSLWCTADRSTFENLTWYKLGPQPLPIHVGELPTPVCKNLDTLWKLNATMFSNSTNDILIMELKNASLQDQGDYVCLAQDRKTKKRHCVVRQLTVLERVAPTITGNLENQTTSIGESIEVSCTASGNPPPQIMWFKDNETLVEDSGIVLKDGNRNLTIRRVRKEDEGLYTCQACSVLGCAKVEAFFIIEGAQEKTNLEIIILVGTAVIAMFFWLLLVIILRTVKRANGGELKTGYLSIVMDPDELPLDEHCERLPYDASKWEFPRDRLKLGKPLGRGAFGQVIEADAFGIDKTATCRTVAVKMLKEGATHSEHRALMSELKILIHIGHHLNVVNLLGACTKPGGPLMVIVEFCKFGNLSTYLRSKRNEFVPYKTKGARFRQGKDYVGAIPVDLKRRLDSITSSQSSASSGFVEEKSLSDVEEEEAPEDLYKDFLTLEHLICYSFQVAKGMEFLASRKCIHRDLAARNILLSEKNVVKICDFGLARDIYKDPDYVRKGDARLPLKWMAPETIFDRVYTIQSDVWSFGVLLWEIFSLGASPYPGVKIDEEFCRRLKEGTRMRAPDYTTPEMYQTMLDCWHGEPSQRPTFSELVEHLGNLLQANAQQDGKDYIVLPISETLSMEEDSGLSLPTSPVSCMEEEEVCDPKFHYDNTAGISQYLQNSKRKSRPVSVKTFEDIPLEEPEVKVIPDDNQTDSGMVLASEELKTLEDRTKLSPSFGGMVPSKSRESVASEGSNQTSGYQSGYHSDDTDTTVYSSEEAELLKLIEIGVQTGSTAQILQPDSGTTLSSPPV

Compound | IC50 (VEGFR2; [1]) [µM] | IC50 (any gene target; Table 3) [µM] | IC50 (VEGFR2) [µM] | IC50 (any gene target) [µM]
CCN=C(NC#N)N1CCOC(COc2cc3ncnc(Nc4ccc(Cl)c(Cl)c4)c3cc2OC)C1 (centres unmarked) [compound 57802565] | 0.05 | 0.05 |  | 
CC(C)(Nc1nc(NO)nc(Nc2ccc3ncsc3c2)n1)c1ccccc1 [compound 10249989] |  |  | 0.04 | 0.42
COc1cc2c(Nc3ccc(C)cc3F)ncnc2cc1OCC1CCN(C)CC1 [compound 5329042] |  |  | 0.025 | 0.065
CO/N=C(\C)c1ccc2c(c1)c1c3c(c4c(c1n2CC(C)C)CCc1nn(C)cc1-4)C(=O)NC3 [compound 44447890] |  |  | 0.004 | 0.008
COc1cc2c(Nc3cc(Cl)c(Cl)cc3F)ncnc2cc1OC[C@@H]1CN2CCOC[C@H]2CO1 [compound 66838463] | 0.05 | 0.05 |  | 
COc1cc2c(Nc3ccc(F)c(Cl)c3F)ncnc2cc1OC[C@H]1CN2CCOC[C@H]2CO1 [compound 10028639] | 0.05 | 0.05 |  | 
COc1cc2c(Nc3ccc(Cl)c(Cl)c3)ncnc2cc1OCCC1CN(C)C(C)(C)CO1 (centres unmarked) [compound 57802889] | 0.05 | 0.05 |  | 
Cc1ccc(C(=O)Nc2cccc(C(F)(F)F)c2)cc1Nc1nc2ccccc2n1-c1cc(NCCC#N)ncn1 [compound 46879446] |  |  | 0.245 | 0.275
Cc1c2ccc(N(C)c3ccnc(Nc4cccc(S(N)(=O)=O)c4)n3)cc2nn1C [compound 24949700] |  |  | 0.0056 | 1.4
COc1cc2c(Nc3ccc(C)c(Cl)c3Cl)ncnc2cc1OCC1CN(C)CCO1 (centres unmarked) [compound 57802779] |  |  | 0.05 | 0.05
COc1cc2c(Nc3ccc(Cl)c(Cl)c3)ncnc2cc1OCc1nc(N2CCNCC2)no1 [compound 57802679] |  |  | 0.05 | 0.05
COc1cc2nccc(Oc3ccc4c(C(=O)NCC(F)(F)F)cccc4c3)c2cc1OC [compound 24823250] |  |  | 0.0038 | 0.016
COc1cc2c(Oc3ccc(Nc4ccc(C(C)(C)C)cc4)cc3)ccnc2cc1OCCNCCO [compound 9850161] | 0.069 | 0.069 |  | 
COc1cc2c(Nc3cc(Cl)c(Cl)cc3F)ncnc2cc1OC[C@H]1CN2CCOC[C@H]2CO1 [compound 10346203] | 0.05 | 0.05 |  | 
COc1cc2c(Nc3ccc(Cl)c(Cl)c3)ncnc2cc1OCCC1CN(C)CC(C)(C)O1 (centres unmarked) [compound 57802732] |  |  | 0.05 | 0.05
COc1cc2c(Nc3ccc(Cl)c(Cl)c3)ncnc2cc1OC[C@@H]1O[C@@H](OC)[C@@H](O)[C@H](O)[C@H]1O [compound 57802800] |  |  | 0.05 | 0.05
COc1cc2c(Nc3cc(O)c(C)cc3F)ncnc2cc1OCC1CCN(C)CC1 [compound 49860186] |  |  | 0.007 | 0.025
COc1cc2c(Nc3ccc(Cl)c(Cl)c3)ncnc2cc1OCC1CN(C(=O)c2c(C)noc2C)CCO1 (centres unmarked) [compound 57802871] | 0.05 | 0.05 |  | 
CCN(CC)[C@H]1CO[C@H]2[C@@H]1OC[C@@H]2Oc1cc2ncnc(Nc3ccc(Br)c(Cl)c3)c2cc1OC [compound 67163520] | 0.05 | 0.05 |  | 
COc1cc2c(Nc3ccc(Br)cc3F)ncnc2cc1OC[C@@H]1CCCN(C)C1 [compound 5329056] |  |  | 0.001 | 0.06
COc1cc2c(Nc3ccc(Cl)c(Cl)c3F)ncnc2cc1OC[C@@H]1CN2CCOC[C@H]2CO1 [compound 66838539] | 0.05 | 0.05 |  | 

Compound | IC50 (VEGFR2; [1]) [µM] | IC50 (any gene target; Table 3) [µM] | IC50 (VEGFR2) [µM] | IC50 (any gene target) [µM]
COc1cc2c(Nc3ccc(F)c(Cl)c3F)ncnc2cc1OC[C@@H]1CN2CCC[C@H]2CO1 [compound 58013819] | 0.05 | 0.05 |  | 
COc1cc2c(Nc3cc(Cl)c(Cl)c(Cl)c3)ncnc2cc1OCC1CN(C)CCO1 (centres unmarked) [compound 57802593] | 0.05 | 0.05 |  | 
COc1cc2nccc(Oc3ccc4c(NC(=O)c5cccc(C(F)(F)F)c5)nn(C)c4c3)c2cc1OC [compound 11398307] |  |  | 0.001 | 0.045
COc1cc2c(Nc3ccc(Cl)c(Cl)c3)ncnc2cc1OCc1cscn1 [compound 10455540] | 0.05 | 0.05 |  | 
c1ccc(-c2cnn3cc(-c4ccc(OCCN5CCOCC5)cc4)cnc23)cc1 [compound 5329447] |  |  | 0.009 | 0.032
COc1cc2c(Nc3cc(F)c(Br)cc3F)ncnc2cc1OCC1CN(C)CCO1 (centres unmarked) [compound 57802916] | 0.05 | 0.05 |  | 
COc1cc2c(Nc3cccc(Cl)c3F)ncnc2cc1OCC1CN(C(N)=NC#N)CCCO1 (centres unmarked) [compound 134142438] | 0.05 | 0.05 |  | 
COc1cc2c(Nc3ccc(Br)cc3F)ncnc2cc1OCCCN1CCN(C)CC1 [compound 49860190] |  |  | 0.009 | 0.03
CSc1cn2c(-c3cn[nH]c3)cnc2c(Nc2cc(C)ns2)n1 [compound 25094210] |  |  | 0.036 | 0.167
COc1cc2c(Nc3ccc(Cl)c(Cl)c3)ncnc2cc1OCC1CN(C(=NC#N)N2CCCC2)CCO1 (centres unmarked) [compound 57802904] | 0.05 | 0.05 |  | 
O=C(CCCCCCCNCc1cc(Oc2ccc(NC(=O)Nc3ccc(Cl)c(C(F)(F)F)c3)cc2)ccn1)NO [compound 25072218] |  |  | 0.1 | 0.1
COc1cc2c(Nc3ccc(Cl)c(Cl)c3F)ncnc2cc1OCC1CN(C)CCO1 (centres unmarked) [compound 57802591] | 0.05 | 0.05 |  | 
C[C@@H](Nc1ncnc2[nH]c(-c3ccc(CN4CCN(CCCCC(=O)NO)CC4)cc3)cc12)c1ccccc1 [compound 24900441] |  |  | 0.1 | 0.1
CC(C)Oc1cc2c(Nc3ccc(Cl)c(Cl)c3)ncnc2cc1OCC1CNCCO1 (centres unmarked) [compound 57802576] | 0.05 | 0.05 |  | 
COc1cc2c(Nc3ccc(Cl)c(Cl)c3F)ncnc2cc1OC[C@@H]1CN2CCC[C@H]2CO1 [compound 57802793] | 0.05 | 0.05 |  | 
COc1cc2c(Nc3ccc(Cl)cc3F)ncnc2cc1OC[C@@H]1CCCN(C)C1 [compound 5329055] |  |  | 0.005 | 0.08
COc1cc2c(Nc3ccc(Br)c(Cl)c3F)ncnc2cc1OCC1CN(C)C(C)(C)CO1 (centres unmarked) [compound 57802747] |  |  | 0.05 | 0.05
C[C@@H](Nc1ncnc2[nH]c(-c3ccc(C(=O)NO)cc3)cc12)c1ccccc1 [compound 24900715] | 0.1 | 0.1 |  | 
CN(c1ccc2cn(C)nc2c1)c1ccnc(Nc2cccc(S(N)(=O)=O)c2)n1 [compound 24949548] |  |  | 0.0076 | 2.9
COc1cc(C2=C(c3c[nH]c4ccccc34)CNC2=O)cc(OC)c1OC [compound 24894117] |  |  | 0.031 | 0.037
CN1CC(=Cc2ccccn2)C(=O)C(=Cc2ccccn2)C1 [compound 2132479] |  |  | 1.3 | 1.9

Compound | IC50 (VEGFR2; [1]) [µM] | IC50 (any gene target; Table 3) [µM] | IC50 (VEGFR2) [µM] | IC50 (any gene target) [µM]
C[C@@H](Nc1ncnc2[nH]c(-c3ccc(NC(=O)CCCC(=O)NO)cc3)cc12)c1ccccc1 [compound 24900574] |  |  | 0.1 | 0.1
COc1cc2c(Nc3ccc(Br)c(Cl)c3F)ncnc2cc1OC[C@@H]1CN2CCOC[C@H]2CO1 [compound 9937516] | 0.05 | 0.05 |  | 
COc1cc2c(Nc3ccc(Cl)c(Cl)c3)ncnc2cc1OCc1csc(C2CCNCC2)n1 [compound 53630972] | 0.05 | 0.05 |  | 
O=C(Nc1cccc(-c2cn3ccnc3c(NCc3ccncc3)n2)c1)Nc1cccc(C(F)(F)F)c1 [compound 11755812] |  |  | 0.033 | 0.035
Cc1ccc(NC(=O)c2cc(C3CC3)[nH]n2)cc1Nc1nc2ccccc2n1-c1cc(N)ncn1 [compound 15949619] |  |  | 0.048 | 0.05
COc1cc2c(Nc3cc(Cl)c(Cl)cc3F)ncnc2cc1OC[C@@H]1CN2CCC[C@H]2CO1 [compound 53630919] | 0.05 | 0.05 |  | 
COCCOc1cc2ncnc(Nc3ccc(Cl)cc3F)c2cc1OC [compound 5329011] |  |  | 0.007 | 0.04
OCCCNc1cncc(-c2cncc(Nc3cccc(Cl)c3)n2)c1 [compound 5330387] | 0.005 | 0.005 |  | 
COc1cc2c(Nc3ccc(Cl)c(Cl)c3)ncnc2cc1OCc1nc(N2CCN(C)CC2)no1 [compound 57802605] | 0.05 | 0.05 |  | 
COc1cc2ncnc(Nc3ccc(Br)cc3)c2cc1OCCCC(=O)NO [compound 127027714] |  |  | 0.098 | 0.545
COc1cc2c(Nc3ccc(Br)c(Cl)c3Cl)ncnc2cc1OC[C@@H]1CN2CCOC[C@H]2CO1 [compound 66838558] | 0.05 | 0.05 |  | 
COc1cc2c(Nc3c(F)cc(Cl)cc3F)ncnc2cc1OCC1CCNCC1 [compound 5329050] |  |  | 0.04 | 0.1
COc1cc2c(Nc3ccc(Cl)c(Cl)c3)ncnc2cc1OCCN1C(=O)c2ccccc2C1=O [compound 57802754] |  |  | 0.05 | 0.05
C[C@@H](Nc1ncnc2[nH]c(-c3ccc(CNCc4ccc(C(=O)NO)cc4)cc3)cc12)c1ccccc1 [compound 59756709] | 0.1 | 0.1 |  | 
COc1cc2c(Nc3ccc(Br)c(F)c3F)ncnc2cc1OCC1CN(C)CCO1 (centres unmarked) [compound 57802560] | 0.05 | 0.05 |  | 
CCOc1cc2c(Nc3ccc(Cl)c(Cl)c3)ncnc2cc1OCC1CNCCO1 (centres unmarked) [compound 57802713] |  |  | 0.05 | 0.05
COc1cc2c(Nc3ccc(Br)c(Cl)c3Cl)ncnc2cc1OC[C@@H]1CN2CCC[C@H]2CO1 [compound 57802722] |  |  | 0.05 | 0.05
O=C(CCCCCN1CCN(Cc2ccc(-c3cc4c(NCc5ccccc5)ncnc4[nH]3)cc2)CC1)NO [compound 24900714] | 0.1 | 0.1 |  | 
COc1cc2c(Nc3cc(Cl)c(Cl)cc3F)ncnc2cc1OCC1CN(C)CCO1 (centres unmarked) [compound 57802547] | 0.05 | 0.05 |  | 
